The values that follow come from patent US20080070898A1, “Piperidine Derivative or Pharmaceutically Acceptable Salt Thereof” (priority 2004, published 2008).

Counter-ions that a name gives are not always drawn.

For assay [1], the system named is sodium channel. Kind of assay: [14C] guanidine uptake test (sodium channel inhibition test), veratridine-induced uptake into rat cerebral cortex primary neurons. In kind it is cell-based. Conditions: 100 μM veratridine, 25° C., 15 minutes, specific uptake defined by 1 mM mexiletine. The protocol:
(Sodium Channel Inhibition Test)
The [^14C] guanidine uptake test was conducted by modifying the method of Bonisch et al. (British Journal of Pharmacology 108, 436-442, 1993). The [^14C] guanidine was used as a sodium tracer, and the inhibitory activity on uptake of [^14C] guanidine induced by veratridine as a sodium channel activator into rat cerebral cortex primary neurons was measured.
a. Preparation of Rat Cerebral Cortex Primary Neuron Culture System.
A pregnant rat (Wistar, female, pregnancy=19 days old) was anesthetized with diethyl ether and killed by bleeding with the cutting of the carotid artery. Fetuses were excised from the pregnant rat and sterilized with ethanol for disinfection. Then, from the fetuses was dissociated the cerebral cortex. The cerebral cortex was digested with papain and dispersed in a culture medium. Then, the dissociated neurons were placed in a 96-well white plate coated with a poly-L-lysine, at a density of […], and cultured for 2 days in a CO2 incubator (37° C., 5% CO2)
b. Evaluation of Test Compounds
Each well was washed once with an assay buffer (135 mM choline Cl, 5 mM KCl, 1 mM MgSO4, 5.5 mM glucose, 1 mg/mL BSA, 10 mM Hepes-Tris, pH 7.4). The assay buffer was added to each well and incubated at 25° C. for 10 minutes. Then, the assay buffer was replaced by a reaction solution (test compound, [^14C] guanidine and 100 μM veratridine) and incubated at 25° C. for 15 minutes. The reaction was terminated by three times washing with a cold-washing buffer (135 mM NaCl, 5 mM KCl, 1 mM MgSO4, 10 mM Hepes-Tris, pH 7.4). To each well was added 17 μL of 0.1 N NaOH; stirring was made; then, 100 μL of a scintillator was added; and the radioactivity of each well was measured using a liquid scintillator counter. In each test, the uptake amount of [^14C] guanidine inhibited by 1 mM of mexiletine was taken as the portion of the specific uptake via sodium channel. The activity of test compound on sodium channel is expressed by 50% inhibitory concentration (IC50) for the specific uptake.

The subject of assay [2] is streptozotocin (STZ)-induced diabetic mice. Briefly: Analgesic action on diabetic neuropathy in streptozotocin-induced diabetic mice (tail pinch test). The class given is in vivo. Conditions: orally 30 mg/kg, 45 minutes prior to measurement, Day 15 after STZ injection, ICR mice. As to the method:
(Analgesic Action on Diabetic Neuropathy in Streptozotocin-Induced Diabetic Mice)
Representative compounds of Compound (I) of the present invention were assessed for the analgesic action on diabetic neuropathy in streptozotocin (STZ)-induced diabetic mice to confirm the effect on neuropathic pain. The assessment was performed by the method of Kamei et al. (Pharmacology Biochemistry & Behavior 39, 541-544, 1991) with some modifications.
Male ICR mice of 4 weeks old were intraperitoneally injected with 200 mg/kg weight of STZ to prepare mice with diabetic neuropathy. The analgesic action was assessed by the tail pinch test. […] On Day 14 following the STZ injection, a pretest was carried out to determine the response latency before the administration of a test compound. Only the animals showing not longer than 3 seconds of the response latency in the pretest were used for the test compound assessment on the following day (Day 15 after STZ injection). In the test compound assessment, the response latency after the administration of a test compound was measured. The test compound was orally administered at a dose of 30 mg/kg, 45 minutes prior to the response latency measurement. The analgesic action of a test compound is expressed as prolongation of latency (in seconds) calculated by the formula: (response latency after administration of a test compound)−(response latency before administration of a test compound).

Assay [3] concerns L5/L6 spinal nerve ligation rats. Briefly: animal or person. Conditions: Rattus norvegicus, po, read-out: ED50 (anti-allodynia action potency).
Experimental: (Anti-Allodynia Effect in Rats with L5/L6 Spinal Nerve Ligation)
The assessment was performed by the method of Kim and Chung (Pain 50, 355-363, 1992) with some modifications. Under pentobarbital anesthesia, male SD rats of 5 or 6 weeks old were given surgery to ligate both the left L5 and L6 lumbar spinal nerves tightly with silk threads. For the assessment of analgesic action, the von Frey hair test was adopted. That is, the animal's hindpaw was picked with hair and the lowest strength of hair for limb withdrawal response was designated as a response threshold (log gram) to mechanical stimulation. […] On the day before the assessment of a test compound, the response threshold before administration of a test compound was measured. The animals were divided into 4 to 5 groups so that differences in the mean values of response thresholds before administration among the groups and variation within groups become small. In the assessment of a test compound, the response threshold after administration of the test compound was measured. The test compound was orally given 30 minutes before measurement of the response threshold. The anti-allodynia action potency of a test compound is expressed as ED50. In the calculation of the ED50, the thresholds of ipsilateral and contralateral paws in the solvent group were designated as 0% and 100%, respectively.

As a reminder, the IC50 is the concentration that inhibits the measured activity by half. Read a low IC50 as higher potency. In turn, `O=C(CN1CCOCC1)N1CCC(/C=C/c2ccccc2Cl)CC1` [Example 1, 4-(2-{4-[(E)-2-(2-chlorophenyl)vinyl]piperidin-1-yl}-2-oxoethyl)morpholine oxalate] displayed an IC50 in assay [1] of 27 µM.
In the case of `Cc1ccccc1/C=C/C1CCN(C(=O)CN2CCOCC2)CC1` [Example 3, 4-(2-{4-[(E)-2-(2-methylphenyl)vinyl]piperidin-1-yl}-2-oxoethyl)morpholine], the “Increase in latent time (prolongation of latency, tail pinch)” value (from here on “Increase in latent time”) in assay [2] turned out to be 2.3 s.
`CC(C)Oc1ccccc1/C=C/C1CCN(C(=O)CN2CCOCC2)CC1` [Example 10]: the IC50 in assay [1] came to 16 µM.
With `CC(C)c1ccc(/C=C/C2CCN(C(=O)CN3CCOCC3)CC2)cc1` [Example 26, 4-(2-{4-[(E)-2-(4-isopropylphenyl)vinyl]piperidin-1-yl}-2-oxoethyl)morpholine], it took 25 µM to reach half-maximal inhibition in assay [1] (IC50). Moreover, in assay [2], the “Increase in latent time” value was determined as 2.3 s.
Consider `O=C(CN1CCOCC1)N1CCC(/C=C/c2ccc(Cl)cc2)CC1` [Example 40, 4-(2-{4-[(E)-2-(4-chlorophenyl)vinyl]piperidin-1-yl}-2-oxoethyl)morpholine], for which, in assay [1], the 50% inhibitory concentration (IC50) amounted to 23 µM. Besides, the “Increase in latent time” value in assay [2] was found to be 3.4 s.
In assay [1], `O=C(CN1CCOCC1)N1CCC(/C=C\c2ccc(Cl)cc2)CC1` [Example 52] gave an IC50 of 24 µM.
Still for that read-out and setting: then `O=C(CN1CCCOCC1)N1CCC(/C=C/c2ccc(Cl)cc2)CC1` [Example 65], with 12 µM; and `O=C(CN1CCNCC1)N1CCC(/C=C/c2cccc(Cl)c2)CC1` [Example 68, 1-(2-{4-[(E)-2-(3-chlorophenyl)vinyl]piperidin-1-yl}-2-oxoethyl)piperazine di-hydrochloride], with 25 µM; and `O=C(C1CCCN1)N1CCC(/C=C/c2ccc(Cl)cc2)CC1` (centres unmarked) [Example 74], with 13 µM.
In turn, `O=C(CNC1CCCCC1)N1CCC(/C=C/c2ccc(Cl)cc2)CC1` [Example 76, N-2-{4-[(E)-2-(4-chlorophenyl)vinyl]piperidin-1-yl}-2-oxoethyl)cyclohexaneamine oxalate] displayed a concentration for half-maximal inhibition (IC50) in assay [1] of 3.4 µM. Also, the “Increase in latent time” value in assay [2] was 3.2 s.
The like results for `CN(CC(=O)N1CCC(/C=C/c2ccc(Cl)cc2)CC1)C1CCCCC1` [Example 78, N-2-{4-[(E)-2-(4-chlorophenyl)vinyl]piperidin-1-yl}-2-oxoethyl)-N-methylcyclohexaneamine oxalate] were, in that order, 3.1 µM and 2.4 s.
One may read the ED50 as the dose that gives a 50% effect, or the effect in half of the subjects. As for `Cc1cccc(C)c1OCC(C)N` (centres unmarked) [mexiletine, reference compound], the 50% effective dose (ED50) in assay [3] is roughly 70 mg/kg. In assay [1], the 50% inhibitory concentration (IC50) is roughly 70 µM.
